From US20250051327A1, “MALT-1 MODULATORS” (EXSCIENTIA AI LIMITED, priority 2020, published 2025) come the findings set out here.

For test [1], the system named is IL-2 secretion by human effector memory T cells (TEM). The test can be described thus: Effector memory T cells IL-2 release assay. Type of test: cell-based. The following applies: T-cell; human CD4+ effector memory T cells, CD3/CD28 bead stimulation, 24 h; read-out: CD4TC IL2 IC50. Summed up:
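Human CD4+ effector memory T cells from healthy-donor buffy coats were stimulated with anti-CD3/CD28 Dynabeads and exposed to 10 semi-log compound doses (0.1% DMSO) for 24 h at 37 °C. Supernatant IL-2 was measured by HTRF, and IC50 came from a 4-parameter logistic fit to maximal IL-2. Viability was checked by flow cytometry.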

Test [2] has as its target Recombinant human MALT-1 (amino acids 340-824) (Homo sapiens (Human), UniProt Q9UDY8). The test can be described thus: MALT-1 inhibition assay (fluorogenic substrate Ac-LRSR-Rh110-DP). The settings on record: recombinant human MALT-1, substrate Ac-LRSR-Rh110-DP. Type of test: biochemical. Summed up:
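MALT-1 at 3 nM final was reacted with 10 μM Ac-LRSR-Rh110-DP, with substrate addition starting the reaction. Incubation ran 60 minutes at 25° C in the dark. Percent inhibition from fluorescence across doses was fitted to a 4-parameter logistic to give IC50.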

Where a name gives a salt, the structure may show the parent alone.

Broadly, the IC50 is the concentration that inhibits the measured activity by half.

Chain of Recombinant human MALT-1 (amino acids 340-824) (Q9UDY8 340-824): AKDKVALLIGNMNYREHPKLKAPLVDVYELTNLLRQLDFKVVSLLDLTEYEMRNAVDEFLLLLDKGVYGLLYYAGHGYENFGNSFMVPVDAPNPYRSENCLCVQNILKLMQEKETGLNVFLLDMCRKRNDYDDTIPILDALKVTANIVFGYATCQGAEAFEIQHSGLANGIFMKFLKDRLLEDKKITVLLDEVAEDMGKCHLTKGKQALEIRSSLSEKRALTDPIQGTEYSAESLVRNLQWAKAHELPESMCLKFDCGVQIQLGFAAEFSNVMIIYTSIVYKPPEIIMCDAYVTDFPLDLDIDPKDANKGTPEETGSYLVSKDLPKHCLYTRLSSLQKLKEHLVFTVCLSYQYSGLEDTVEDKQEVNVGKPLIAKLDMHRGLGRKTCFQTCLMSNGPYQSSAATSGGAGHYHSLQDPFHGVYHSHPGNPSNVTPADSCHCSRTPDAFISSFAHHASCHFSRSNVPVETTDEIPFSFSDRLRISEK

Regarding `CN(C(=O)[C@@H]1CC(=O)N1)[C@@H](c1ccc(N2CCCc3c2cnc2cc(Cl)nn32)cc1)C(F)(F)F` [CPD0075870, (2S)-N-[(1S)-1-[4-(4-chloro-2,3,7,10-tetrazatricyclo[7.4.0.0^2,6]trideca-1(9),3,5,7-tetraen-10-yl)phenyl]-2,2,2-trifluoro-ethyl]-N-methyl-4-oxo-azetidine-2-carboxamide], the IC50 in test [1] turned out to be 120 nM; in test [2], 63 nM.

On to `CN(C(=O)[C@H]1CCS(=O)(=O)C1)[C@@H](c1ccc(N2CCCc3c2cnc2cc(Cl)nn32)cc1)C(F)(F)F` (relative stereo) [CPD0022134, (3rel-R)-N-[(1S)-1-(4-{4-chloro-2,3,7,10-tetraazatricyclo[7.4.0.0^2,6]trideca-1(9),3,5,7-tetraen-10-yl}phenyl)-2,2,2-trifluoroethyl]-N-methyl-1,1-dioxo-1λ^6-thiolane-3-carboxamide], for which the values for the IC50 in test [1] and in test [2] were 175 nM and 134 nM, respectively.

On to `CN(C(=O)C1CCS(=O)(=O)CC1)[C@@H](c1ccc(N2CCCc3c2cnc2cc(Cl)nn32)c(F)c1)C(F)(F)F` [CPD0021750, N-[(1S)-1-(4-{4-chloro-2,3,7,10-tetraazatricyclo[7.4.0.0^2,6]trideca-1(9),3,5,7-tetraen-10-yl}-3-fluorophenyl)-2,2,2-trifluoroethyl]-N-methyl-1,1-dioxo-1λ^6-thiane-4-carboxamide], for which the IC50 in test [1] is 111 nM; in test [2] it was 76 nM.

Regarding `COc1ccc2ncc(Nc3ccc([C@H](N(C)C(=O)C4CCS(=O)(=O)CC4)C(F)(F)F)cc3)cc2n1` [CPD0018619, N-methyl-1,1-dioxo-N-[(1S)-2,2,2-trifluoro-1-[4-[(6-methoxy-1,5-naphthyridin-3-yl)amino]phenyl]ethyl]thiane-4-carboxamide], the IC50 in test [1] amounted to 190 nM; in test [2] it was 361 nM.

On to `COC[C@@]1(C)CCN(c2ccc([C@H](N(C)C(=O)[C@H]3CC[S@+]([O-])CC3)C(F)(F)F)cc2)c2cnc3cc(Cl)nn3c21` (relative stereo) [CPD0073138, (1rel-r,4 rel-r)-N-[(1S)-1-[4-[(13 rel-S)-4-chloro-13-(methoxymethyl)-13-methyl-2,3,7,10-tetrazatricyclo[7.4.0.0^2,6]trideca-1(9),3,5,7-tetraen-10-yl]phenyl]-2,2,2-trifluoro-ethyl]-N-methyl-1-oxo-1λ^4-thiane-4-carboxamide], for which the results for the IC50 in test [1] and in test [2] were 55 nM and 79 nM, respectively.

As to `COC(=O)N1CCC(C(=O)N(C)[C@@H](c2ccc(N3CCCc4c3cnc3cc(Cl)nn43)cc2)C(F)(F)F)CC1` [CPD0073691, methyl 4-{[(1S)-1-(4-{4-chloro-2,3,7,10-tetraazatricyclo[7.4.0.0^2,6]trideca-1(9),3,5,7-tetraen-10-yl}phenyl)-2,2,2-trifluoroethyl](methyl)carbamoyl}piperidine-1-carboxylate], the results for the IC50 in test [1] and in test [2] were 149 nM and 101 nM, respectively.

On to `CN1C(=O)CC[C@@H]1C(=O)N(C)[C@@H](c1ccc(N2CCCc3c2cnc2cc(Cl)nn32)cc1)C(F)(F)F` [CPD0073920, (2R)-N-[(1S)-1-(4-{4-chloro-2,3,7,10-tetraazatricyclo[7.4.0.0^2,6]trideca-1(9),3,5,7-tetraen-10-yl}phenyl)-2,2,2-trifluoroethyl]-N,1-dimethyl-5-oxopyrrolidine-2-carboxamide], for which the IC50 in test [1] amounted to 94 nM; in test [2], 60 nM.

As to `CC(=O)N1CCC(C(=O)N(C)[C@@H](c2ccc(N3CC[C@@H](C)c4c3cnc3cc(Cl)nn43)cc2)C(F)(F)F)CC1` [CPD0074558], the values for the IC50 in test [1] and in test [2] were 67 nM and 74 nM, respectively.

As for `CN(C(=O)[C@H]1CC[S@+]([O-])CC1)[C@@H](c1ccc(N2CCCc3c2cnc2cc(Cl)nn32)cc1)C(F)(F)F` (relative stereo) [CPD0022137, (1rel-r,4rel-r)-N-[(1S)-1-(4-{4-chloro-2,3,7,10-tetraazatricyclo[7.4.0.0^2,6]trideca-1(9),3,5,7-tetraen-10-yl}phenyl)-2,2,2-trifluoroethyl]-N-methyl-1-oxo-1λ^4-thiane-4-carboxamide], the values for the IC50 in test [1] and in test [2] were 127 nM and 73 nM, respectively.

For `CN(C(=O)[C@@H]1CCN(C(=O)CO)C1)[C@@H](c1ccc(N2CCCc3c2cnc2cc(Cl)nn32)cc1)C(F)(F)F` (relative stereo) [CPD0073976, (3 rel-R)—N-[(1S)-1-(4-{4-chloro-2,3,7,10-tetraazatricyclo[7.4.0.0^2,6]trideca-1(9),3,5,7-tetraen-10-yl}phenyl)-2,2,2-trifluoroethyl]-1-(2-hydroxyacetyl)-N-methylpyrrolidine-3-carboxamide], the IC50 amounted to 149 nM in test [1] and 57 nM in test [2].

In the case of `CN(C(=O)C1CCS(=O)(=O)CC1)[C@@H](c1ccc(N2CCCc3c2cnc2cc(F)nn32)nc1)C(F)(F)F` [CPD0021665, N-methyl-1,1-dioxo-N-[(1S)-2,2,2-trifluoro-1-(6-{4-fluoro-2,3,7,10-tetraazatricyclo[7.4.0.0^2,6]trideca-1(9),3,5,7-tetraen-10-yl}pyridin-3-yl)ethyl]-1λ^6-thiane-4-carboxamide], the half-inhibitory concentration (IC50) in test [1] came to 2100 nM; in test [2], 638 nM.

With `CN(C(=O)[C@H]1C[C@H](C(=O)O)C1)[C@@H](c1ccc(N2CCCc3c2cnc2cc(Cl)nn32)cc1)C(F)(F)F` [CPD0072439, (trans)-3-{[(1S)-1-(4-{4-chloro-2,3,7,10-tetraazatricyclo[7.4.0.0^2,6]trideca-1(9),3,5,7-tetraen-10-yl}phenyl)-2,2,2-trifluoroethyl](methyl)carbamoyl}cyclobutane-1-carboxylic acid], the half-inhibitory concentration (IC50) in test [1] is 557 nM; in test [2] it was 35 nM.

Take `CN(C(=O)N1CCOCC1)[C@@H](c1ccc(N2CCCc3c2cnc2cc(Cl)nn32)cc1)C(F)(F)F` [CPD0073084, N-[(1S)-1-(4-{4-chloro-2,3,7,10-tetraazatricyclo[7.4.0.0^2,6]trideca-1(9),3,5,7-tetraen-10-yl}phenyl)-2,2,2-trifluoroethyl]-N-methylmorpholine-4-carboxamide]: the IC50 in test [1] was 255 nM; in test [2] it was 168 nM.

Consider `CN(C(=O)C1CN(C(=O)[C@H]2CCO2)C1)[C@@H](c1ccc(N2CCCc3c2cnc2cc(Cl)nn32)cc1)C(F)(F)F` (relative stereo) [CPD0073562, N-[(1S)-1-(4-{4-chloro-2,3,7,10-tetraazatricyclo[7.4.0.0^2,6]trideca-1(9),3,5,7-tetraen-10-yl}phenyl)-2,2,2-trifluoroethyl]-N-methyl-1-[(2rel-R)-oxetane-2-carbonyl]azetidine-3-carboxamide], for which the IC50 in test [1] stood at 352 nM; in test [2], 80 nM.

On to `CN(C(=O)[C@H]1CCN(C(=O)CO)C1)[C@@H](c1ccc(N2CCCc3c2cnc2cc(Cl)nn32)cc1)C(F)(F)F` (relative stereo) [CPD0073977, (3rel-S)—N-[(1S)-1-(4-{4-chloro-2,3,7,10-tetraazatricyclo[7.4.0.0^2,6]trideca-1(9),3,5,7-tetraen-10-yl}phenyl)-2,2,2-trifluoroethyl]-1-(2-hydroxyacetyl)-N-methylpyrrolidine-3-carboxamide], for which the results for the half-inhibitory concentration (IC50) in test [1] and in test [2] were 115 nM and 39 nM, respectively.

As for `CN(C)CC(=O)N1CC[C@H](C(=O)N(C)[C@@H](c2ccc(N3CCCc4c3cnc3cc(Cl)nn43)cc2)C(F)(F)F)C1` (relative stereo) [CPD0075876, (3rel-R)-N-[(1S)-1-[4-(4-chloro-2,3,7,10-tetrazatricyclo[7.4.0.0^2,6]trideca-1(9),3,5,7-tetraen-10-yl)phenyl]-2,2,2-trifluoro-ethyl]-1-[2-(dimethylamino)acetyl]-N-methyl-pyrrolidine-3-carboxamide], the IC50 in test [1] is 207 nM; in test [2] it was 138 nM.

`COc1ccc2ncc(Nc3ccc([C@H](N(C)C(=O)[C@@H]4CCN(C(=O)CO)C4)C(F)(F)F)cc3)c([C@H](C)OC)c2n1` (relative stereo) [CPD0075883, (3 rel R)-1-(2-hydroxyacetyl)-N-methyl-N-[(1S)-2,2,2-trifluoro-1-[4-[[6-methoxy-4-[(1 rel S-1-methoxyethyl]-1,5-naphthyridin-3-yl]amino]phenyl]ethyl]pyrrolidine-3-carboxamide]: the IC50 was determined as 47 nM in test [1] and 52 nM in test [2].

For the molecule `CN(C(=O)C1CCOCC1)[C@@H](c1ccc(N2CCCc3c2cnc2cc(Cl)nn32)cc1)C(F)(F)F` [CPD0021574, N-[(1S)-1-(4-{4-chloro-2,3,7,10-tetraazatricyclo[7.4.0.0^2,6]trideca-1(9),3,5,7-tetraen-10-yl}phenyl)-2,2,2-trifluoroethyl]-N-methyloxane-4-carboxamide], the IC50 in test [1] worked out at 121 nM; in test [2], 123 nM.

With `CN(C(=O)C1CC(C(=O)O)C1)[C@@H](c1ccc(N2CCCc3c2cnc2cc(Cl)nn32)cc1)C(F)(F)F` (stereo partly shown) [CPD0072461], the results for the IC50 in test [1] and in test [2] were 732 nM and 63 nM, respectively.

With `CNCC(=O)N1CC[C@H](C(=O)N(C)[C@@H](c2ccc(N3CCCc4c3cnc3cc(Cl)nn43)cc2)C(F)(F)F)C1` (relative stereo) [CPD0075880, (3 rel-R)—N-[(1S)-1-[4-(4-chloro-2,3,7,10-tetrazatricyclo[7.4.0.0^2,6]trideca-1(9),3,5,7-tetraen-10-yl)phenyl]-2,2,2-trifluoro-ethyl]-N-methyl-1-[2-(methylamino)acetyl]pyrrolidine-3-carboxamide hydrochloride], the IC50 in test [1] amounted to 363 nM; in test [2], 99 nM.
